Experimental data as given in patent publication US8642585B2, “Indanyloxydihydrobenzofuranylacetic acids” (Boehringer Ingelheim International GmbH, priority 2012, dated 2014).

The molecules below were run against human GPR40 receptor (Homo sapiens, UniProt O14842) (assay: Assay I: IP1 accumulation (IPOne HTRF) in 1321N1 cells stably expressing human GPR40). Settings: 1321N1 cells expressing human GPR40, stimulation 1 hour at 37° C., 10% CO2, final LiCl 50 mM.
Assay type: cell-based
Experimental: IP1 accumulation measurements using the IPOne assay system—1321N1 cells stably expressing human GPR40 receptor (Euroscreen, Belgium) are seeded 24 h before the assay in black clear-bottom collagen-coated 384-well plates in culture medium containing 10% FCS, 1% Na-Pyruvate and 400 μg/mL G418. IP1 is assayed according to the Manufacturers description (Cisbio Bioassays, France). In brief, the assay is started by substitution of the culture medium by stimulation buffer (Hepes 10 mM, CaCl2 1 mM, MgCl2 0.5 mM, KCl 4.2 mM, NaCl 146 mM and glucose 5.5 mM, pH 7.4) without LiCl. Cells are stimulated for 1 hour at 37° C., 10% CO2 by addition of the compounds that are diluted in stimulation buffer containing LiCl yielding a final LiCl concentration of 50 mM. Assays are stopped by adding HTRF-conjugates (IP1-d2 and Anti-IP1 cryptate Tb) and lysis buffer, provided by the manufacturer. After an incubation time of 1 hour at room temperature plates are measured using an EnVision™, Perkin Elmer. The obtained fluorescence ratios at 665/615 nM are then used to calculate the pEC50 values using GraphPad Prism 5 (Graphpad Software Inc, USA) by interpolation using an IP1 reference curve and subsequent sigmoidal curve fitting allowing for a variable hill slope.

human GPR40 receptor, sequence (O14842 whole entry): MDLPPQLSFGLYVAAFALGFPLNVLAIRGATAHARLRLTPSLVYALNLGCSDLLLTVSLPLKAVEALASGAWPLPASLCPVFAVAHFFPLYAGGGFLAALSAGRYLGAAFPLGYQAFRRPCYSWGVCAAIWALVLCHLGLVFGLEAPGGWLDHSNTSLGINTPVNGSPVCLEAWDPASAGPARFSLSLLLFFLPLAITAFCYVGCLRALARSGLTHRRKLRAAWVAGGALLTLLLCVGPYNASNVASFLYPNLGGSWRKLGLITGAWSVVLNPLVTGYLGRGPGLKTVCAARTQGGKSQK

Compound | EC50 [nM]
CNC(=O)COc1cc(C)c(-c2ccc(F)c3c2CC[C@H]3Oc2ccc3c(c2)OC[C@H]3CC(=O)O)c(C)c1 [Example 12, 2-((S)-6-((R)-4-(2,6-Dimethyl-4-(2-(methylamino)-2-oxoethoxy)phenyl)-7-fluoro-2,3-dihydro-1H-inden-1-yloxy)-2,3-dihydrobenzofuran-3-yl)acetic acid] | 12
Cc1cc(OCC(=O)N(C)C)cc(C)c1-c1ccc(F)c2c1CC[C@H]2Oc1ccc2c(c1)OC[C@H]2CC(=O)O [Example 13, 2-((S)-6-((R)-4-(4-(2-(Dimethylamino)-2-oxoethoxy)-2,6-dimethylphenyl)-7-fluoro-2,3-dihydro-1H-inden-1-yloxy)-2,3-dihydrobenzofuran-3-yl)acetic acid] | 63
Cc1cc(OCC(N)=O)cc(C)c1-c1ccc(F)c2c1CC[C@H]2Oc1ccc2c(c1)OC[C@H]2CC(=O)O [Example 14, 2-((S)-6-((R)-4-(4-(2-Amino-2-oxoethoxy)-2,6-dimethylphenyl)-7-fluoro-2,3-dihydro-1H-inden-1-yloxy)-2,3-dihydrobenzofuran-3-yl)acetic acid] | 14
Cc1cc(OCC(C)(C)CO)cc(C)c1-c1ccc(F)c2c1CC[C@H]2Oc1ccc2c(c1)OC[C@H]2CC(=O)O [Example 15, 2-((S)-6-((R)-7-Fluoro-4-(4-(3-hydroxy-2,2-dimethylpropoxy)-2,6-dimethylphenyl)-2,3-dihydro-1H-inden-1-yloxy)-2,3-dihydrobenzofuran-3-yl)acetic acid] | 5
COCC(C)(C)COc1cc(C)c(-c2ccc(F)c3c2CC[C@H]3Oc2ccc3c(c2)OC[C@H]3CC(=O)O)c(C)c1 [Example 16, 2-((S)-6-((R)-7-Fluoro-4-(4-(3-methoxy-2,2-dimethylpropoxy)-2,6-dimethylphenyl)-2,3-dihydro-1H-inden-1-yloxy)-2,3-dihydrobenzofuran-3-yl)acetic acid] | 5
Cc1cc(-c2cncnc2)cc(C)c1-c1ccc(F)c2c1CC[C@H]2Oc1ccc2c(c1)OC[C@H]2CC(=O)O [Example 17, 2-((S)-6-((R)-4-(2,6-Dimethyl-4-(pyrimidin-5-yl)phenyl)-7-fluoro-2,3-dihydro-1H-inden-1-yloxy)-2,3-dihydrobenzofuran-3-yl)acetic acid] | 4
Cc1cc(-c2ncco2)cc(C)c1-c1ccc(F)c2c1CC[C@H]2Oc1ccc2c(c1)OC[C@H]2CC(=O)O [Example 18, 2-((S)-6-((R)-4-(2,6-Dimethyl-4-(oxazol-2-yl)phenyl)-7-fluoro-2,3-dihydro-1H-inden-1-yloxy)-2,3-dihydrobenzofuran-3-yl)acetic acid] | 4
Cc1cc(-c2cnn(C)c2)cc(C)c1-c1ccc(F)c2c1CC[C@H]2Oc1ccc2c(c1)OC[C@H]2CC(=O)O [Example 19, 2-((S)-6-((R)-4-(2,6-Dimethyl-4-(1-methyl-1H-pyrazol-4-yl)phenyl)-7-fluoro-2,3-dihydro-1H-inden-1-yloxy)-2,3-dihydrobenzofuran-3-yl)acetic acid] | 3
Cc1cc(-c2ccnn2C)cc(C)c1-c1ccc(F)c2c1CC[C@H]2Oc1ccc2c(c1)OC[C@H]2CC(=O)O [Example 20, 2-((S)-6-((R)-4-(2,6-Dimethyl-4-(1-methyl-1H-pyrazol-5-yl)phenyl)-7-fluoro-2,3-dihydro-1H-inden-1-yloxy)-2,3-dihydrobenzofuran-3-yl)acetic acid] | 9
Cc1cc(OC(C)(C)C#N)cc(C)c1-c1ccc(F)c2c1CC[C@H]2Oc1ccc2c(c1)OC[C@H]2CC(=O)O [Example 21, 2-((S)-6-((R)-4-(4-(2-Cyanopropan-2-yloxy)-2,6-dimethylphenyl)-7-fluoro-2,3-dihydro-1H-inden-1-yloxy)-2,3-dihydrobenzofuran-3-yl)acetic acid] | 9
Cc1cc(OCC(C)(C)CN(C)C)cc(C)c1-c1ccc(F)c2c1CC[C@H]2Oc1ccc2c(c1)OC[C@H]2CC(=O)O [Example 22, 2-((S)-6-((R)-4-(4-(3-(Dimethylamino)-2,2-dimethylpropoxy)-2,6-dimethylphenyl)-7-fluoro-2,3-dihydro-1H-inden-1-yloxy)-2,3-dihydrobenzofuran-3-yl)acetic acid] | 17
Cc1cc(OCCN2CCCC2=O)cc(C)c1-c1ccc(F)c2c1CC[C@H]2Oc1ccc2c(c1)OC[C@H]2CC(=O)O [Example 23, 2-((S)-6-((R)-4-(2,6-Dimethyl-4-(2-(2-oxopyrrolidin-1-yl)ethoxy)phenyl)-7-fluoro-2,3-dihydro-1H-inden-1-yloxy)-2,3-dihydrobenzofuran-3-yl)acetic acid] | 10
Cc1cc(C2=CCOCC2)cc(C)c1-c1ccc(F)c2c1CC[C@H]2Oc1ccc2c(c1)OC[C@H]2CC(=O)O [Example 24, 2-((S)-6-((R)-4-(4-(3,6-dihydro-2H-pyran-4-yl)-2,6-dimethylphenyl)-7-fluoro-2,3-dihydro-1H-inden-1-yloxy)-2,3-dihydrobenzofuran-3-yl)acetic acid] | 3
Cc1cc(C2=CCN(S(C)(=O)=O)CC2)cc(C)c1-c1ccc(F)c2c1CC[C@H]2Oc1ccc2c(c1)OC[C@H]2CC(=O)O [Example 25, 2-((S)-6-((R)-4-(2,6-dimethyl-4-(1-(methylsulfonyl)-1,2,3,6-tetrahydropyridin-4-yl)phenyl)-7-fluoro-2,3-dihydro-1H-inden-1-yloxy)-2,3-dihydrobenzofuran-3-yl)acetic acid] | 35
Cc1cc(OC2CN(S(C)(=O)=O)C2)cc(C)c1-c1ccc(F)c2c1CC[C@H]2Oc1ccc2c(c1)OC[C@H]2CC(=O)O [Example 26, 2-((S)-6-((R)-4-(2,6-Dimethyl-4-(1-(methylsulfonyl)azetidin-3-yloxy)phenyl)-7-fluoro-2,3-dihydro-1H-inden-1-yloxy)-2,3-dihydrobenzofuran-3-yl)acetic acid] | 17
Cc1cc(OCC2CCS(=O)(=O)C2)cc(C)c1-c1ccc(F)c2c1CC[C@H]2Oc1ccc2c(c1)OC[C@H]2CC(=O)O (stereo partly drawn) [Example 27, 2-((3S)-6-((1R)-4-(2,6-Dimethyl-4-((1,1-dioxo-tetrahydrothiophen-3-yl)methoxy)phenyl)-7-fluoro-2,3-dihydro-1H-inden-1-yloxy)-2,3-dihydrobenzofuran-3-yl)acetic acid] | 9
Cc1cc(OCC2CCS(=O)(=O)CC2)cc(C)c1-c1ccc(F)c2c1CC[C@H]2Oc1ccc2c(c1)OC[C@H]2CC(=O)O [Example 28, 2-((S)-6-((R)-4-(2,6-Dimethyl-4-((1,1-dioxo-tetrahydro-2H-thiopyran-4-yl)methoxy)phenyl)-7-fluoro-2,3-dihydro-1H-inden-1-yloxy)-2,3-dihydrobenzofuran-3-yl)acetic acid] | 6
Cc1cc(OCC2CN(S(C)(=O)=O)C2)cc(C)c1-c1ccc(F)c2c1CC[C@H]2Oc1ccc2c(c1)OC[C@H]2CC(=O)O [Example 29, 2-((S)-6-((R)-4-(2,6-Dimethyl-4-((1-(methylsulfonyl)azetidin-3-yl)methoxy)phenyl)-7-fluoro-2,3-dihydro-1H-inden-1-yloxy)-2,3-dihydrobenzofuran-3-yl)acetic acid] | 11
CCS(=O)(=O)N1CC(COc2cc(C)c(-c3ccc(F)c4c3CC[C@H]4Oc3ccc4c(c3)OC[C@H]4CC(=O)O)c(C)c2)C1 [Example 30, 2-((S)-6-((R)-4-(4-((1-(Ethylsulfonyl)azetidin-3-yl)methoxy)-2,6-dimethylphenyl)-7-fluoro-2,3-dihydro-1H-inden-1-yloxy)-2,3-dihydrobenzofuran-3-yl)acetic acid] | 7
